Experimental data as given in US20250073311A1, “DOSAGE REGIME” (ZEALAND PHARMA A/S, priority 2021, published 2025).
Values joined by “and” are separate entries in the source; they are usually repeats but may differ in a detail not shown here. Identical values can stand only once. Like-named read-outs stand apart in the source and are kept apart here. Numbered stars: 1 amine (or outer) side, 2 acyl side, 3 side chain; on linkers, the order of the positions; unused ones are H or OH. Square brackets hold non-standard residues; d marks the D form. Side chains are listed from the residue outwards. Peptide text beside a SMILES is read from it. * marks the point of attachment. C18 diacid = O=C(O)CCCCCCCCCCCCCCCCC(=O)*; γGlu = O=C(O)[C@H](CCC(=O)[*:2])N[*:1]; Aib = CC(C)(N)C(=O)O

Experiments:
[1] = tested on: healthy human subjects; assay: Single ascending dose Phase 1a trial, adverse events; assay type: in vivo; settings: 6 subjects
Procedure: A single ascending dose Phase 1a trial was conducted for Cpd. 18 investigating the safety of single subcutaneous injections of doses ranging from 0.02 mg to 7.5 mg in healthy human subjects.
The phase 1a study was a First in Human, Randomized, Double-blind, Placebo-controlled, Single Ascending Dose Trial assessing Safety, Tolerability, Pharmacokinetics and Pharmacodynamics of a Single Subcutaneous Dose of Cpd. 18 in Healthy human Subjects.
Eight cohorts (dose levels: 0.02, 0.07, 0.2, 0.6, 1.5, 3.0, 6.0 and 7.5 mg) were given in this first in human trial. Eight subjects were allocated to the following ascending dose levels: 0.02, 0.07, 0.2, 0.6, 1.5, 3.0, 6.0 and 7.5 mg.
Adverse events (AE) were captured by asking open ended and nonleading questions according to the following wording in the protocol:
(§1) • All events meeting the definition of an AE must be collected and reported from the first trial-related activity after the subject has signed the informed consent and until the end of the post-treatment follow-up period. At each contact with the site (Visit or telephone) the subject must be asked about AEs. All AEs, either observed by the Investigator or reported by the subject, must be recorded by the Investigator and evaluated. • The Investigator should record the diagnosis, if possible. If no diagnosis can be made the Investigator should record each sign and symptom as individual AEs. • All AEs must be recorded by the Investigator. One single Adverse Event Form must be used per AE from start to resolution. For Serious Adverse Events (SAE), the Serious Adverse Event Form must also be completed.”

[2] = Plasma half-life in single ascending dose Phase 1a trial (LC-MS/MS); assay type: in vivo; settings: human
Procedure: Blood sampling for determining Cpd 18 plasma concentrations were performed during the phase la study (outlined in Example 2) at scheduled timepoints. Concentration of Cpd 18 in plasma was measured using a validated LC-MS/MS assay. Pharmacokinetic (PK) endpoints for Cpd 18 were derived from the individual concentration profiles (with hour as time unit). For PK analysis, Cpd 18 concentrations were supplied by the analytical laboratory in nmol/L. Mean measured concentrations per dose level are shown in […].
For determination of λz a linear regression was performed using the logarithm to plasma Cpd. 18 concentration as the response variable and at least three valid concentration measurements of the terminal end period after Cmax. (The exact number of data points depends on the best goodness-of-fit). Cmax is not included in the calculation for λz as this point may be affected by absorption still taking place from the injection site.
The terminal elimination half-life of the plasma Cpd. 18 profile (t½) was calculated by the following formula: […]

[3] = tested on: healthy human subjects; assay: Multiple ascending dose Phase 1b trial, adverse events; assay type: in vivo; settings: 7 subjects
Procedure: A multiple ascending dose Phase 1b trial was conducted for Cpd. 18 investigating the safety of multiple subcutaneous injections of various ascending doses in healthy human subjects. The trial was a Randomized, Double-blind, Placebo-controlled, Multi Ascending Dose Trial assessing Safety, Tolerability, Pharmacokinetics and Pharmacodynamics of Multiple Subcutaneous Dose of Cpd. 18 in Healthy human Subjects.
Four cohorts were dosed with four once weekly subcutaneous administrations. In each cohort, consisting of 10 subjects each, subjects were randomized to either placebo (n=3) or to the following active multiple ascending dose levels (n=7): 4 weekly dose injections of 1.0 mg; 4 weekly dose injections of 2.25 mg; 4 weekly dose injections of 3.5 mg and 1 weekly dose injections of 3.5 mg followed by 3 weekly dose injections of 6.0 mg.
Adverse events (AE) were captured by asking open ended and non-leading questions according to the following wording in the protocol:
as §1
The safety data (incidence/number of subjects) for subjects dosed 4×1.0 mg to 1×3.5 mg plus 3×6.0 mg as well as placebo is shown in Table 10 below.

[4] = tested on: healthy human subjects; assay: Mixed meal test (breakfast), Phase 1b trial; assay type: in vivo
Procedure: Reduction in appetite is reflected in the reduction in food intake measured by mixed meal test for breakfast (Table 11) and by measuring caloric intake at standard meals for lunch and dinner (Table 12).
The Mixed Meal Test (MMT) was performed at baseline, at 24 hours, after the first dosing (Day 2) and after the fourth dosing (Day 23). The meal consisted of a fixed nutrient content and the exact initial amount of nutrients were weighed by kitchen staff on a lab scale using the method of weighed intake. Consumption was supervised and leftovers were weighed and recorded as percentage of meal. Adjustment of leftovers on Day 2 will be performed for Day 23 and differences in weight will be calculated in carbohydrates.

[5] = Body weight in Phase 1b trial; assay type: in vivo, human; settings: four once weekly s.c. doses, 1.0 mg to 3.5/6.0 mg, healthy subjects, FIG. 3
[6] = 1 × 3.5 mg plus 3 × 6.0 mg weekly s.c.

half-life ([2]; sc, single s.c. dose 0.02 mg, healthy subjects, N 6, read-out: t1/2 Mean (converted)): 140 h | half-life ([2]; sc, single s.c. dose 0.07 mg, healthy subjects, N 6, read-out: t1/2 Mean (converted)): 126 h | half-life ([2]; sc, single s.c. dose 0.2 mg, healthy subjects, N 6, read-out: t1/2 Mean (converted)): 129 h | half-life ([2]; sc, single s.c. dose 0.6 mg, healthy subjects, N 6, read-out: t1/2 Mean (converted)): 110 h | half-life ([2]; sc, single s.c. dose 1.5 mg, healthy subjects, N 6, read-out: t1/2 Mean (converted)): 120 h | half-life ([2]; sc, single s.c. dose 3 mg, healthy subjects, N 6, read-out: t1/2 Mean (converted)): 120 h | half-life ([2]; sc, single s.c. dose 6 mg, healthy subjects, N 6, read-out: t1/2 Mean (converted)): 112 h | half-life ([2]; sc, single s.c. dose 7.5 mg, healthy subjects, N 6, read-out: t1/2 Mean (converted)): 135 h | half-life ([2]; subcutaneous, following a single dose, across dose groups, read-out: calculated mean half-life): 110 to 135 h
SMILES: CC[C@H](C)[C@H](NC(=O)[C@H](Cc1ccccc1)NC(=O)[C@H](CC(=O)O)NC(=O)[C@H](CCCNC(=N)N)NC(=O)[C@H](C)NC(=O)[C@H](C)NC(=O)[C@H](CCC(N)=O)NC(=O)[C@H](CCCCNC(=O)CC[C@H](NC(=O)CCCCCCCCCCCCCCCCC(=O)O)C(=O)O)NC(=O)[C@H](CC(=O)O)NC(=O)[C@H](CC(C)C)NC(=O)[C@@H](NC(=O)[C@@H](NC(=O)[C@H](C)NC(=O)[C@H](CC(C)C)NC(=O)[C@H](CCC(=O)O)NC(=O)[C@H](CO)NC(=O)[C@@H](NC(=O)[C@H](Cc1ccccc1)NC(=O)[C@H](CO)NC(=O)CNC(=O)[C@H](CCC(=O)O)NC(=O)C(C)(C)NC(=O)[C@@H](N)Cc1c[nH]cn1)[C@@H](C)O)[C@@H](C)O)[C@@H](C)CC)C(=O)N[C@@H](C)C(=O)N[C@@H](Cc1c[nH]c2ccccc12)C(=O)N[C@@H](CC(C)C)C(=O)N[C@H](C(=O)N[C@@H](CCC(N)=O)C(=O)N[C@@H](Cc1c[nH]cn1)C(=O)N[C@@H](CCCCN)C(=O)N[C@H](C(=O)N[C@H](C(=O)N[C@@H](CC(=O)O)C(=O)O)[C@@H](C)O)[C@@H](C)CC)[C@@H](C)CC [Compound 18] (H-H[Aib]EGSFTSELATILDK([γGlu-C18 diacid])QAARDFIAWLIQHKITD-OH)
Subjects experiencing decreased appetite ([1]; single s.c. dose 0.02 mg): 0 | Subjects experiencing nausea ([1]; single s.c. dose 0.02 mg): 2 | Subjects experiencing vomiting ([1]; single s.c. dose 0.02 mg): 0 | Subjects experiencing decreased appetite ([1]; single s.c. dose 0.07 mg): 1 | Subjects experiencing nausea ([1]; single s.c. dose 0.07 mg): 0 | Subjects experiencing vomiting ([1]; single s.c. dose 0.07 mg): 0 | Subjects experiencing decreased appetite ([1]; single s.c. dose 0.2 mg): 0 | Subjects experiencing nausea ([1]; single s.c. dose 0.2 mg): 1 | Subjects experiencing vomiting ([1]; single s.c. dose 0.2 mg): 0 | Subjects experiencing decreased appetite ([1]; single s.c. dose 0.6 mg): 0 | Subjects experiencing nausea ([1]; single s.c. dose 0.6 mg): 0 | Subjects experiencing vomiting ([1]; single s.c. dose 0.6 mg): 0 | Subjects experiencing decreased appetite ([1]; single s.c. dose 1.5 mg): 3/6 and 3 | Subjects experiencing nausea ([1]; single s.c. dose 1.5 mg): 0 | Subjects experiencing vomiting ([1]; single s.c. dose 1.5 mg): 0 | Subjects experiencing decreased appetite ([1]; single s.c. dose 3.0 mg): 2 | Subjects experiencing nausea ([1]; single s.c. dose 3.0 mg): 3 | Subjects experiencing vomiting ([1]; single s.c. dose 3.0 mg): 2 | Subjects experiencing decreased appetite ([1]; single s.c. dose 6.0 mg): 3 | Subjects experiencing nausea ([1]; single s.c. dose 6.0 mg): 4 | Subjects experiencing vomiting ([1]; single s.c. dose 6.0 mg): 5 | Subjects experiencing nausea ([1]; single s.c. dose 7.5 mg): 2 | Subjects experiencing vomiting ([1]; single s.c. dose 7.5 mg): 2 | Subjects experiencing decreased appetite [3, 6]: 6/7 and 6 | Subjects experiencing nausea [3, 6]: 4 | Subjects experiencing vomiting [3, 6]: 3 | Subjects experiencing decreased appetite ([3]; 4 weekly s.c. doses of 1.0 mg): 0 | Subjects experiencing nausea ([3]; 4 weekly s.c. doses of 1.0 mg): 1 | Subjects experiencing vomiting ([3]; 4 weekly s.c. doses of 1.0 mg): 0 | Subjects experiencing decreased appetite ([3]; 4 weekly s.c. doses of 2.25 mg): 3/7 and 3 | Subjects experiencing nausea ([3]; 4 weekly s.c. doses of 2.25 mg): 1 | Subjects experiencing vomiting ([3]; 4 weekly s.c. doses of 2.25 mg): 0 | Subjects experiencing decreased appetite ([3]; 4 weekly s.c. doses of 3.5 mg): 2/7 and 2 | Subjects experiencing nausea ([3]; 4 weekly s.c. doses of 3.5 mg): 0 | Subjects experiencing vomiting ([3]; 4 weekly s.c. doses of 3.5 mg): 0 | Mean food consumption ([4]; After 1st dose (Day 2), cohort 1.0 mg): 99.0% | Mean food consumption ([4]; After 1st dose (Day 2), cohort 2.25 mg): 95.4% | Mean food consumption ([4]; After 1st dose (Day 2), cohort 3.5 mg): 99.2% and 96.2% | Mean food consumption ([4]; After 1st dose (Day 2), cohort 3.5/6.0 mg): 87.5% | Mean food consumption ([4]; After 4th dose (Day 23), cohort 1.0 mg weekly): 98.6% | Mean food consumption ([4]; After 4th dose (Day 23), cohort 2.25 mg weekly): 95.8% | Mean food consumption ([4]; After 4th dose (Day 23), cohort 3.5 mg weekly): 93.2% | Mean food consumption ([4]; After 4th dose (Day 23), cohort 3.5/6.0 mg weekly): 62.5% | Mean food consumption ([4]; Baseline, cohort 1.0 mg): 99.2% | Mean food consumption ([4]; Baseline, cohort 2.25 mg): 100% | Mean food consumption ([4]; Baseline, cohort 3.5 mg): 100% | Mean food consumption ([4]; Baseline, cohort 3.5/6.0 mg): 95.8% | Body weight [5]: dose dependent reduction in body weight
